The record followed here is patent US5464848A, “1,2,4-oxadiazolyl-phenoxyalkylisoxazoles and their use as antiviral agents” (Sterling Winthrop Inc., priority 1993, dated 1995).

Experiment [1] has as its system coxsackievirus A9. The experiment can be described thus: Oral efficacy against coxsackievirus A9 in suckling mice, administered once. It is filed as in vivo. The note with it: Enterovirus B, 60 h, once 2.5 days postinfection, read-out: 50% protective dose. On the procedure:
In another study of the oral efficacy of Example 1e against a coxsackievirus A9 infection in suckling mice, in which the compound was administered once 2.5 days postinfection, the 50% protective dose was determined to be 93 mg/kg per day.

In another experiment the test system is coxsackievirus A21. The experiment can be described thus: Oral efficacy against coxsackievirus A21 in weanling ICR mice. The experiment is classed as in vivo. The conditions noted are these: for % Alive at Day 17: oral.
The next experiment concerns HRV-50. The experiment can be described thus: Inhibition of virus-induced CPE in HeLa cells (MIC), HRV-50. The experiment is classed as cell-based. The note with it: Human rhinovirus sp., HRV50, 72 h, 3 day incubation at 33° C. On the procedure:
(§1) They are useful in inhibiting virus replication in vitro and are primarily active against picornaviruses, including enteroviruses, echovirus and coxsackie virus, especially rhinoviruses. […] The test procedure used was as follows: The MIC values were determined by an automated tissue culture infectious dose 50% (TCID-50) assay. HeLa cells in monoloyers in 96-well cluster plates were infected with a dilution of virus which had been shown empirically to produce 80% to 100% cytopathic effect (CPE) in 3 days in the absence of drug. The compound to be tested was serially diluted through 10, 2-fold cycles and added to the infected cells. After a 3 day incubation at 33° C. and 2.5% carbon dioxide, the cells were fixed with a 5% solution of glutaraldehyde followed by staining with a 0.25% solution of crystal violet in water. The plates were then rinsed, dried, and the amount of stain remaining in the well (a measure of intact cells) was quantitated with an optical density reader. The MIC was determined to be the concentration of compound which protected 50% of the cells from virus-induced CPE relative to an untreated virus control. […]

For a further experiment, the system named is HRV-22. Kind of experiment: Inhibition of virus-induced CPE in HeLa cells (MIC), HRV-22. It is filed as cell-based. The note with it: Human rhinovirus sp., HRV22, 72 h, 3 day incubation at 33° C. The method, then:
as §1

Another experiment concerns HRV-41. Kind of experiment: Inhibition of virus-induced CPE in HeLa cells (MIC), HRV-41. The experiment is classed as cell-based. The note with it: Human rhinovirus sp., HRV41, 72 h, 3 day incubation at 33° C. The method, then:
as §1

A further experiment deals with HRV-89. Kind of experiment: Inhibition of virus-induced CPE in HeLa cells (MIC), HRV-89. It is filed as cell-based, human rhinovirus. The conditions noted are these: Rhinovirus A, HRV89, 72 h, 3 day incubation at 33° C. On the procedure:
as §1

For the next experiment, the system named is HRV-15. Kind of experiment: Inhibition of virus-induced CPE in HeLa cells (MIC), HRV-15. The experiment is classed as cell-based. The note with it: Human rhinovirus sp., HRV15, 72 h, 3 day incubation at 33° C. On the procedure: as §1
The next experiment deals with HRV-2. Kind of experiment: Inhibition of virus-induced CPE in HeLa cells, automated TCID-50 assay (MIC), HRV-2. The experiment is classed as cell-based, human rhinovirus. The conditions noted are these: Rhinovirus A, HRV2, 72 h, 3 day incubation at 33° C. On the procedure:
as §1

In experiment [2] the test system is human rhinovirus (HRV) serotypes, panel T. Kind of experiment: MIC50/MIC80 over panel T of fifteen human rhinovirus serotypes (HeLa cell CPE). The experiment is classed as cell-based. The method, then:
(§2) They are useful in inhibiting virus replication in vitro and are primarily active against picornaviruses, including enteroviruses, echovirus and coxsackie virus, especially rhinoviruses. […] The test procedure used was as follows: The MIC values were determined by an automated tissue culture infectious dose 50% (TCID-50) assay. HeLa cells in monoloyers in 96-well cluster plates were infected with a dilution of virus which had been shown empirically to produce 80% to 100% cytopathic effect (CPE) in 3 days in the absence of drug. The compound to be tested was serially diluted through 10, 2-fold cycles and added to the infected cells. After a 3 day incubation at 33° C. and 2.5% carbon dioxide, the cells were fixed with a 5% solution of glutaraldehyde followed by staining with a 0.25% solution of crystal violet in water. The plates were then rinsed, dried, and the amount of stain remaining in the well (a measure of intact cells) was quantitated with an optical density reader. The MIC was determined to be the concentration of compound which protected 50% of the cells from virus-induced CPE relative to an untreated virus control.
(§3) In the above test procedures, representative compounds of formula I were tested against some the serotypes from either a panel of fifteen human rhinovirus (HRV) serotypes, (noted in the table as panel T) namely, HRV-2, -14, -1A, -1B, -6, -21, -22, -15, -25, -30, -50, -67, -89, -86 and -41 or against some of the serotypes from a panel of 10 human rhinovirus serotypes namely HRV-3, -4, -5, -9, -16, -18, -38, -66, -75 and -61, (noted in the table as panel B) and the MIC value, expressed in micrograms per milliliter ([…]), for each rhinovirus serotype was determined for each virus, example 1e is given as an example of the data. Then MIC50 and MIC80 values, which are the minimum concentrations of the compound required to inhibit 50% and 80%, respectively, of the tested serotypes were determined.
(§4) The following Table gives the test results for representative compounds of the invention. The panel of viruses used in the test appears before the MIC80 and MIC50 figure and the number of serotypes which the compound is tested against (N) is indicated after the MIC80 and MIC50 figure.

A further experiment concerns HRV-86. Kind of experiment: Inhibition of virus-induced CPE in HeLa cells (MIC), HRV-86. The conditions noted are these: Human rhinovirus sp., HRV86, 72 h, 3 day incubation at 33° C. The experiment is classed as cell-based. On the procedure:
as §1

For the next experiment, the system named is HRV-21. The experiment can be described thus: Inhibition of virus-induced CPE in HeLa cells (MIC), HRV-21. It is filed as cell-based. The note with it: Human rhinovirus sp., HRV21, 72 h, 3 day incubation at 33° C. The method, then:
as §1

For experiment [3], the system named is 15 most commonly isolated nonpolio enteroviruses. The experiment can be described thus: MIC for the 15 most commonly isolated nonpolio enteroviruses. It is filed as cell-based. The conditions noted are these: 15 nonpolio enteroviruses. The method, then: as §2
Using the method described above, Example 1e was tested against other viruses. […]

For another experiment, the system named is HRV-1B. The experiment can be described thus: Inhibition of virus-induced CPE in HeLa cells (MIC), HRV-1B. The experiment is classed as cell-based, human rhinovirus. The conditions noted are these: Rhinovirus A, HRV1B, 72 h, 3 day incubation at 33° C. On the procedure:
as §1

A further experiment relates to coxsackievirus B3. Kind of experiment: Oral efficacy against coxsackievirus B3 in mice. The experiment is classed as in vivo, adult male BALB/c mice.
The test system of another experiment is HRV-1A. Kind of experiment: Inhibition of virus-induced CPE in HeLa cells (MIC), HRV-1A. The experiment is classed as cell-based, human rhinovirus. The note with it: Rhinovirus A, HRV1A, 72 h, 3 day incubation at 33° C. On the procedure: as §1
Experiment [4] concerns coxsackievirus A9. The experiment can be described thus: Oral efficacy against coxsackievirus A9 in suckling ICR mice, daily for five days. It is filed as in vivo, mice (suckling ICR pups).
A further experiment relates to HRV-67. Kind of experiment: Inhibition of virus-induced CPE in HeLa cells (MIC), HRV-67. The experiment is classed as cell-based. The conditions noted are these: Human rhinovirus sp., HRV67, 72 h, 3 day incubation at 33° C. On the procedure:
as §1

In another experiment the test system is HRV-25. Kind of experiment: Inhibition of virus-induced CPE in HeLa cells (MIC), HRV-25. It is filed as cell-based. The conditions noted are these: Human rhinovirus sp., HRV25, 72 h, 3 day incubation at 33° C. The method, then:
as §1

The test system of a further experiment is HRV-30. The experiment can be described thus: Inhibition of virus-induced CPE in HeLa cells (MIC), HRV-30. It is filed as cell-based. The note with it: Human rhinovirus sp., HRV30, 72 h, 3 day incubation at 33° C. On the procedure: as §1
For the next experiment, the system named is HRV-14. Kind of experiment: Inhibition of virus-induced CPE in HeLa cells (MIC), HRV-14. The conditions noted are these: Rhinovirus B, HRV14, 72 h, 3 day incubation at 33° C. It is filed as cell-based, human rhinovirus. The method, then: as §1
The test system of experiment [5] is human rhinovirus serotypes, panel B. Kind of experiment: MIC50/MIC80 over panel B of 10 human rhinovirus serotypes (HeLa cell CPE). The note with it: for MIC50: Human rhinovirus sp., 72 h; for MIC80: panel B, minimum concentration required to inhibit 80% of the tested serotypes. It is filed as cell-based. The method, then:
as §2, §3, §4

Converted amounts (≈) assume the structure as drawn.

For the molecule `Cc1cc(CCCOc2c(C)cc(-c3noc(C(F)(F)F)n3)cc2C)on1` [Example 1e, 5-{3-[2,6--Dimethyl-4-(5-trifluoromethyl-1,2,4-oxadiazol-3-yl)phenoxy]propyl}-3-methylisoxazole], the ED50 was determined as 93 mg/kg in the experiment with coxsackievirus A9 [1]; 26 mg/kg in the experiment with coxsackievirus A21 (Enterovirus C, A21, po, read-out: 50% protective dose (PD50)); 12 mg/kg in the experiment on coxsackievirus B3 (Enterovirus B, B3, po, coxsackievirus B3, adult male mice, oral, Day 1 to Day 5, read-out: 50% protective dose (PD50)); 88 mg/kg in the experiment on coxsackievirus A9 [4] (Enterovirus B, A9, po, coxsackievirus A9, suckling mice, oral, daily for five days beginning 2.5 days postinfection, read-out: 50% protective dose (PD50)). For the same molecule, the “% Alive at Day 17” value in the experiment with coxsackievirus A21 (9.4 mg/kg per day) worked out at 13%; with coxsackievirus A21 (18.8 mg/kg per day) it was 40%; in the experiment on coxsackievirus A21 (37.5 mg/kg per day), 75%; in the experiment on coxsackievirus A21 (75 mg/kg per day) it was 100%; in the experiment with coxsackievirus B3 (2 mg/kg per day, oral) it was 8%; in the experiment with coxsackievirus B3 (20 mg/kg per day, oral), 67%. Besides, the “% Alive at Day 17” value in the experiment with coxsackievirus B3 (200 mg/kg per day, oral) was found to be 92%. Moreover, the “protection of infected mice, oral” value with coxsackievirus A21 (coxsackievirus A21), with coxsackievirus B3 (coxsackievirus B3) and in the experiment on coxsackievirus A9 [4] (coxsackievirus A9) was “orally effective in protecting mice” throughout. For the same molecule, the MIC in the experiment on HRV-50 turned out to be 0.154 µg/mL (≈ 0.404 µM); in the experiment with HRV-22 it was 0.011 µg/mL (≈ 0.0288 µM); against HRV-41, 0.338 µg/mL (≈ 0.886 µM); in the experiment on HRV-89 it was 0.015 µg/mL (≈ 0.0393 µM); against HRV-15 it was 0.147 µg/mL (≈ 0.385 µM); in the experiment with HRV-2, 0.027 µg/mL (≈ 0.0708 µM). Also, the MIC against HRV-86 was found to be 0.029 µg/mL (≈ 0.076 µM); with HRV-21 it was 0.015 µg/mL (≈ 0.0393 µM); with HRV-1B, 0.054 µg/mL (≈ 0.142 µM); in the experiment with HRV-1A, 0.119 µg/mL (≈ 0.312 µM); against HRV-67 it was 0.07 µg/mL (≈ 0.184 µM); in the experiment on HRV-25, 0.036 µg/mL (≈ 0.0944 µM). The MIC in the experiment on HRV-30 was found to be 0.047 µg/mL (≈ 0.123 µM); against HRV-14, 0.022 µg/mL (≈ 0.0577 µM). Moreover, the MIC50 in experiment [2] (Human rhinovirus sp., 72 h, minimum concentration required to inhibit 50% of the tested serotypes) stood at 0.0415 µg/mL (≈ 0.109 µM). In addition, in experiment [2] (minimum concentration required to inhibit 80% of the tested serotypes), the MIC80 was found to be 0.119 µg/mL (≈ 0.312 µM). Besides, in [3], the “overall MIC80” value worked out at 0.05 µM. Moreover, in the experiment with coxsackievirus B3 (coxsackievirus B3 infection in mice), the “efficacy in severe disseminated enterovirus infection model” value is listed as “has shown efficacy in this stringent model”. Also, the “% Nonparalyzed at Day 13” value in the experiment on coxsackievirus A9 [4] (0.2 mg/kg per day, oral) stood at 7%; in the experiment on coxsackievirus A9 [4] (2.0 mg/kg per day, oral) it was 10%; with coxsackievirus A9 [4] (20 mg/kg per day, oral) it was 10%; in the experiment with coxsackievirus A9 [4] (200 mg/kg per day, oral), 87%.

In [5], `Cc1cc(CCCOc2c(C)cc(-c3noc(C(F)(F)F)n3)cc2F)on1` [Example 60h, 5-{3-[2-Fluoro-6-methyl-4-(5-trifluoromethyl-1,2,4-oxadiazol-3-yl)phenoxy]propyl}-3-methylisoxazole] came in with an MIC50 of 0.328 µg/mL (≈ 0.851 µM) and an MIC80 of 0.0315 µg/mL (≈ 0.0818 µM).

In [5], `Cc1cc(CCCOc2c(C)cc(-c3noc(C(F)(F)F)n3)cc2Cl)on1` [Example 63d, 5-{3-[4-(5-Trifluoromethyl-1,2,4-oxadiazol-3-yl)2-chloro-6-methylphenoxy]propyl}-3-methylisoxazole] gave an MIC50 of 0.304 µg/mL (≈ 0.757 µM) and an MIC80 of 0.13 µg/mL (≈ 0.324 µM).
